Experimental data from patent publication US9156801B2, “2-substituted oleanolic acid derivative, method preparing for same, and application thereof” (HANGZHOU BENSHENG PHARMACEUTICAL CO., LTD., priority 2011, dated 2015).
Values after ≈ are worked out from the molar mass of the structure shown.

Legend:
RPMI8226 cell line = experiment: multiple myeloma cell growth inhibition, MTT; format: cell-based; conditions: Homo sapiens, RPMI-8226; for inhibition at 16 µg/mL: RPMI8226, 16 μg/mL compound, 72 h, read-out: IR (cell proliferation inhibition rate); for IC50: RPMI8226, 72 h
Procedure, shortened: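 RPMI8226 cells (6000 per well) in RPMI 1640 with 10% FBS were exposed to several concentrations of compound for 72 h at 37° C and 5% CO2. Viable cells were quantified by MTT, with inhibition set to 0% in untreated controls.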

Jurkat cell line = experiment: leukemia cell growth inhibition, MTT; format: cell-based; conditions: Homo sapiens, 72 h; for inhibition at 16 µg/mL: 16 μg/mL compound, read-out: IR (cell proliferation inhibition rate)
Procedure, shortened: (§1)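 6000 cells per well in RPMI 1640 with 10% FBS were exposed to the oleanolic acid derivatives at a range of concentrations for 72 h at 37 °C, 5% CO2. Viable cells were measured by MTT, with untreated control inhibition set at 0%.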

NB4 cell line = experiment: leukemia cell growth inhibition, MTT; format: cell-based; conditions: Homo sapiens, NB-4; for inhibition at 16 µg/mL: NB4, 16 μg/mL compound, 72 h, read-out: IR (cell proliferation inhibition rate); for IC50: NB4, 72 h
Procedure, shortened: as §1

K562/adr cell line = experiment: leukemia cell growth inhibition, MTT; format: cell-based; conditions: Homo sapiens, 72 h; for IC50: K562/Adr; for inhibition at 16 µg/mL: K562/adr, 16 μg/mL compound, read-out: IR (cell proliferation inhibition rate)
Procedure, shortened: as §1

Kasumi-1 cell line = experiment: leukemia cell growth inhibition, MTT; format: cell-based; conditions: Homo sapiens; for inhibition at 16 µg/mL: Kasumi-1, 16 μg/mL compound, 72 h, read-out: IR (cell proliferation inhibition rate); for IC50: Kasumi-1, 72 h
Procedure, shortened: as §1

H9 cell line = experiment: leukemia cell growth inhibition, MTT; format: cell-based; conditions: Homo sapiens; for IC50: H9, 72 h; for inhibition at 16 µg/mL: H9, 16 μg/mL compound, 72 h, read-out: IR (cell proliferation inhibition rate)
Procedure, shortened: as §1

Hela cell line = experiment: solid tumor cell growth inhibition, MTT; format: cell-based; conditions: Homo sapiens, 72 h; for IC50: HeLa; for inhibition at 16 µg/mL: Hela, 16 μg/mL compound, read-out: IR (cell proliferation inhibition rate)
Procedure, shortened: (§2)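 Compound-treated cultures (72 h, 37° C, 5% CO2, DMEM high glucose with 10% FBS) were compared with untreated wells assigned 0% inhibition, using MTT to gauge relative living cells; seeding was 4000 cells per well, 24 h before treatment.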

SK-OV-3 cell line = experiment: solid tumor cell growth inhibition, MTT; format: cell-based; conditions: Homo sapiens; for IC50: SK-OV-3, 72 h; for inhibition at 16 µg/mL: SK-OV-3, 16 μg/mL compound, 72 h, read-out: IR (cell proliferation inhibition rate)
Procedure, shortened: as §2

RKO cell line = experiment: solid tumor cell growth inhibition, MTT; format: cell-based; conditions: Homo sapiens, 72 h; for inhibition at 16 µg/mL: 16 μg/mL compound, read-out: IR (cell proliferation inhibition rate)
Procedure, shortened: as §2

PC-3 cell line = experiment: solid tumor cell growth inhibition, MTT; format: cell-based; conditions: Homo sapiens; for IC50: PC-3, 72 h; for inhibition at 16 µg/mL: PC-3, 16 μg/mL compound, 72 h, read-out: IR (cell proliferation inhibition rate)
Procedure, shortened: as §2

Hep-2 cell line = experiment: solid tumor cell growth inhibition, MTT; format: cell-based; conditions: Homo sapiens; for IC50: HEp-2, 72 h; for inhibition at 16 µg/mL: Hep-2, 16 μg/mL compound, 72 h, read-out: IR (cell proliferation inhibition rate)
Procedure, shortened: as §2

MG-63 cell line = experiment: solid tumor cell growth inhibition, MTT; format: cell-based; conditions: Homo sapiens; for IC50: MG-63, 72 h; for inhibition at 16 µg/mL: MG-63, 16 μg/mL compound, 72 h, read-out: IR (cell proliferation inhibition rate)
Procedure, shortened: as §2

Becap37 cell line = experiment: solid tumor cell growth inhibition, MTT; format: cell-based; conditions: Homo sapiens; for inhibition at 16 µg/mL: Becap37, 16 μg/mL compound, 72 h, read-out: IR (cell proliferation inhibition rate); for IC50: Becap37, 72 h
Procedure, shortened: as §2

CNE cell line = experiment: solid tumor cell growth inhibition, MTT; format: cell-based; conditions: Homo sapiens, 72 h; for inhibition at 16 µg/mL: 16 μg/mL compound, read-out: IR (cell proliferation inhibition rate)
Procedure, shortened: as §2

MGC 803 cell line = experiment: solid tumor cell growth inhibition, MTT; format: cell-based; conditions: Homo sapiens; for inhibition at 16 µg/mL: MGC 803, 16 μg/mL compound, 72 h, read-out: IR (cell proliferation inhibition rate); for IC50: MGC 803, 72 h
Procedure, shortened: as §2

PANC-1 cell line = experiment: solid tumor cell growth inhibition, MTT; format: cell-based; conditions: Homo sapiens; for IC50: PANC-1, 72 h; for inhibition at 16 µg/mL: PANC-1, 16 μg/mL compound, 72 h, read-out: IR (cell proliferation inhibition rate)
Procedure, shortened: as §2

CaES-17 cell line = experiment: solid tumor cell growth inhibition, MTT; format: cell-based; conditions: Homo sapiens, CaEs17; for inhibition at 16 µg/mL: CaES-17, 16 μg/mL compound, 72 h, read-out: IR (cell proliferation inhibition rate); for IC50: CaES-17, 72 h
Procedure, shortened: as §2

A549 cell line = experiment: solid tumor cell growth inhibition, MTT; format: cell-based; conditions: Homo sapiens; for IC50: A549, 72 h; for inhibition at 16 µg/mL: A549, 16 μg/mL compound, 72 h, read-out: IR (cell proliferation inhibition rate)
Procedure, shortened: as §2

U87 MG cell line = experiment: solid tumor cell growth inhibition, MTT; format: cell-based; conditions: Homo sapiens, U-87 MG, 72 h; for inhibition at 16 µg/mL: 16 μg/mL compound, read-out: IR (cell proliferation inhibition rate)
Procedure, shortened: as §2

Hep G2 cell line = experiment: solid tumor cell growth inhibition, MTT; format: cell-based, human; conditions: Homo sapiens; for inhibition at 16 µg/mL: HepG2, 72 h, Hep G2, 16 μg/mL compound, 72 h, read-out: IR (cell proliferation inhibition rate); for IC50: HepG2, Hep G2, 72 h
Procedure, shortened: as §2

Compound | inhibition at 16 µg/mL (RPMI8226 cell line) | IC50 (RPMI8226 cell line) | inhibition at 16 µg/mL (Jurkat cell line) | IC50 (Jurkat cell line) | inhibition at 16 µg/mL (NB4 cell line) | IC50 (NB4 cell line) | IC50 (K562/adr cell line) | inhibition at 16 µg/mL (K562/adr cell line) | inhibition at 16 µg/mL (Kasumi-1 cell line) | IC50 (Kasumi-1 cell line) | IC50 (H9 cell line) | inhibition at 16 µg/mL (H9 cell line) | IC50 (Hela cell line) | inhibition at 16 µg/mL (Hela cell line) | IC50 (SK-OV-3 cell line) | inhibition at 16 µg/mL (SK-OV-3 cell line) | inhibition at 16 µg/mL (RKO cell line) | IC50 (RKO cell line) | IC50 (PC-3 cell line) | inhibition at 16 µg/mL (PC-3 cell line) | further results
COC(=O)[C@]12CCC(C)(C)C[C@H]1C1=CC[C@@H]3[C@@]4(C)CC(C(=O)NCC5CC5)C(=O)C(C)(C)[C@@H]4CC[C@@]3(C)[C@]1(C)CC2 (stereo partly drawn) [BS-OA-048] | 4.9% | > 16 µg/mL | -21.2% | > 16 µg/mL | 11% | > 16 µg/mL | > 16 µg/mL | 21.4% | 0.2% | > 16 µg/mL | > 16 µg/mL | 28.9% | > 16 µg/mL | 2.4% | > 16 µg/mL | 22% | -33.4% | > 16 µg/mL | > 16 µg/mL | 17.7% | IC50 (Hep-2 cell line): > 16 µg/mL; inhibition at 16 µg/mL (Hep-2 cell line): -5.3%; IC50 (MG-63 cell line): > 16 µg/mL; inhibition at 16 µg/mL (MG-63 cell line): -20.3%; inhibition at 16 µg/mL (Becap37 cell line): -8.4%; IC50 (Becap37 cell line): > 16 µg/mL; inhibition at 16 µg/mL (CNE cell line): 21.9%; IC50 (CNE cell line): > 16 µg/mL; inhibition at 16 µg/mL (MGC 803 cell line): -5.9%; IC50 (MGC 803 cell line): > 16 µg/mL; IC50 (PANC-1 cell line): > 16 µg/mL; inhibition at 16 µg/mL (PANC-1 cell line): -17.8%; inhibition at 16 µg/mL (CaES-17 cell line): -18.6%; IC50 (CaES-17 cell line): > 16 µg/mL; IC50 (A549 cell line): > 16 µg/mL; inhibition at 16 µg/mL (A549 cell line): -3.8%; inhibition at 16 µg/mL (U87 MG cell line): 5.6%; IC50 (U87 MG cell line): > 16 µg/mL; inhibition at 16 µg/mL (Hep G2 cell line): 7.4%; IC50 (Hep G2 cell line): > 16 µg/mL
CCOCCNC(=O)C1C[C@@]2(C)C(CC[C@]3(C)C2CC=C2C4CC(C)(C)CC[C@]4(C(=O)OC)CC[C@]23C)C(C)(C)C1=O (stereo partly drawn) [BS-OA-053] | 29.5% | > 16 µg/mL | 13% | > 16 µg/mL | 71.3% | 10.7 µg/mL (≈ 18.3 µM) | 10.8 µg/mL (≈ 18.4 µM) | 60.9% | 23.2% | > 16 µg/mL | 15.5 µg/mL (≈ 26.6 µM) | 54.6% | > 16 µg/mL | 27.5% | > 16 µg/mL | 22.7% | -55.6% | > 16 µg/mL | > 16 µg/mL | 38.8% | IC50 (Hep-2 cell line): > 16 µg/mL; inhibition at 16 µg/mL (Hep-2 cell line): -10%; IC50 (MG-63 cell line): > 16 µg/mL; inhibition at 16 µg/mL (MG-63 cell line): -32.5%; inhibition at 16 µg/mL (Becap37 cell line): -10.2%; IC50 (Becap37 cell line): > 16 µg/mL; inhibition at 16 µg/mL (CNE cell line): 9.9%; IC50 (CNE cell line): > 16 µg/mL; inhibition at 16 µg/mL (MGC 803 cell line): 7.8%; IC50 (MGC 803 cell line): > 16 µg/mL; IC50 (PANC-1 cell line): > 16 µg/mL; inhibition at 16 µg/mL (PANC-1 cell line): -3.3%; inhibition at 16 µg/mL (CaES-17 cell line): -13.1%; IC50 (CaES-17 cell line): > 16 µg/mL; IC50 (A549 cell line): > 16 µg/mL; inhibition at 16 µg/mL (A549 cell line): 2%; inhibition at 16 µg/mL (U87 MG cell line): 20.1%; IC50 (U87 MG cell line): > 16 µg/mL; inhibition at 16 µg/mL (Hep G2 cell line): 6.8%; IC50 (Hep G2 cell line): > 16 µg/mL
CCN(CC)CCCNC(=O)C1C[C@@]2(C)C(CC[C@]3(C)C2CC=C2C4CC(C)(C)CC[C@]4(C(=O)O)CC[C@]23C)C(C)(C)C1=O (stereo partly drawn) [BS-OA-108] | 97.3% | 6.4 µg/mL (≈ 10.5 µM) | 66.5% | 12.6 µg/mL (≈ 20.6 µM) | 92.4% | 6.86 µg/mL (≈ 11.2 µM) | 4.83 µg/mL (≈ 7.91 µM) | 96.1% | 74.5% | 10.2 µg/mL (≈ 16.6 µM) | 15.3 µg/mL (≈ 25 µM) | 57.7% | > 16 µg/mL | 43% | > 16 µg/mL | -15.6% | 63.2% | 14.3 µg/mL (≈ 23.4 µM) | > 16 µg/mL | -8.2% | IC50 (Hep-2 cell line): > 16 µg/mL; inhibition at 16 µg/mL (Hep-2 cell line): 22.7%; IC50 (MG-63 cell line): > 16 µg/mL; inhibition at 16 µg/mL (MG-63 cell line): 47.4%; inhibition at 16 µg/mL (Becap37 cell line): 38.4%; IC50 (Becap37 cell line): > 16 µg/mL; inhibition at 16 µg/mL (CNE cell line): 42.7%; IC50 (CNE cell line): > 16 µg/mL; inhibition at 16 µg/mL (MGC 803 cell line): 13.1%; IC50 (MGC 803 cell line): > 16 µg/mL; IC50 (PANC-1 cell line): > 16 µg/mL; inhibition at 16 µg/mL (PANC-1 cell line): 21.6%; inhibition at 16 µg/mL (CaES-17 cell line): 32%; IC50 (CaES-17 cell line): > 16 µg/mL; IC50 (A549 cell line): > 16 µg/mL; inhibition at 16 µg/mL (A549 cell line): 27.5%; inhibition at 16 µg/mL (U87 MG cell line): 18.5%; IC50 (U87 MG cell line): > 16 µg/mL; inhibition at 16 µg/mL (Hep G2 cell line): 42.3%; IC50 (Hep G2 cell line): > 16 µg/mL
